Reference: US20100311714A1, “1H-IMIDAZO[4,5-c]QUINOLINONE COMPOUNDS” (priority 2009, published 2010)
Where two headings read alike, the source gives them in different places.

Target: T1, PI3K alfa (Homo sapiens, UniProt P42336)
T1 construct: His tag (C); made in house; host or cells: baculovirus BV1075; Tn5 (Trichoplusia ni) or TiniPro insect cells
Assay: PI3K alpha kinase assay (Kinase-Glo luminescence)
Format: biochemical
Summary of the method: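 Kinase-Glo luminescence read of ATP remaining after PI3Kα (10 nM) phosphorylates 10 μg/mL bovine liver phosphatidylinositol with 1 μM ATP, pH 7.5 TRIS, 3 mM MgCl2, 0.05% CHAPS; 60 min at room temperature. IC50 from 4-parameter logistic fit over 8 concentrations.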

T1 sequence (P42336 with tags, fused parts or gaps limits assumed): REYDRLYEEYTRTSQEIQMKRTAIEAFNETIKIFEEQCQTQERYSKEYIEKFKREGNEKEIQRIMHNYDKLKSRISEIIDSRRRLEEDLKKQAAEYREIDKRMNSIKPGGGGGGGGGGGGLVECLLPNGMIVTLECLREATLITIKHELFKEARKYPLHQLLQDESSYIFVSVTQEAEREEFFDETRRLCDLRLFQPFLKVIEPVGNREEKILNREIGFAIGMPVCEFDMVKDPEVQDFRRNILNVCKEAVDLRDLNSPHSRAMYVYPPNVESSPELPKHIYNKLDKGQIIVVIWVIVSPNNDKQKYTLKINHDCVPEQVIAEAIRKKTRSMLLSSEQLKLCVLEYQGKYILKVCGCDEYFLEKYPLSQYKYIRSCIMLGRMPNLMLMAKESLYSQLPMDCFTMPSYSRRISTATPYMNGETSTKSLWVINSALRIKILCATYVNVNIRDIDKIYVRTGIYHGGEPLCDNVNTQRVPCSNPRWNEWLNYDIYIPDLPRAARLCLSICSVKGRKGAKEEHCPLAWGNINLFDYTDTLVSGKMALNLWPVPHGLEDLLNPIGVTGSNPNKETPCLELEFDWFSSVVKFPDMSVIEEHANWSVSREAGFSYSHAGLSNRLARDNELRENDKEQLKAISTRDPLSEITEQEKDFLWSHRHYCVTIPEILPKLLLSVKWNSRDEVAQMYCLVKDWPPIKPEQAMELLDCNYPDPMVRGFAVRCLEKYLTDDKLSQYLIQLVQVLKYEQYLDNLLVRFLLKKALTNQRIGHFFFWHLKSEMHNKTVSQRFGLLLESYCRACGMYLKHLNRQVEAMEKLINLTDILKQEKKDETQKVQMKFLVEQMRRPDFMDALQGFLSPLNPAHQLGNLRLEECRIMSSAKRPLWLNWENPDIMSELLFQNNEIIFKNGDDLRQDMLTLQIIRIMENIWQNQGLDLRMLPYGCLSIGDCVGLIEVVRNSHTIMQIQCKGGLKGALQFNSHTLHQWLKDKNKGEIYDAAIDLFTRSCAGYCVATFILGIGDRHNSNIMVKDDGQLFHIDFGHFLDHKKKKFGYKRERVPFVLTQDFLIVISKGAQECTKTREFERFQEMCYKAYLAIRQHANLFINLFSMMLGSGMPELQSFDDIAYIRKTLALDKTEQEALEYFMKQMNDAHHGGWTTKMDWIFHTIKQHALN

| IC50 (read-out: EPK_PI3Kalfa/IC50) [nM] | IC50 (read-out: PI3Kalfa/IC50) [nM] | Compound |
| --- | --- | --- |
| 14 |  | CCNc1cc(-c2ccc3ncc4c(c3c2)n(-c2ccc(N3CCC3)nc2C)c(=O)n4C)cnc1CO [Example 23.8, 1-(6-Azetidin-1-yl-2-methyl-pyridin-3-yl)-8-(5-ethylamino-6-hydroxymethyl-pyridin-3-yl)-3-methyl-1,3-dihydro-imidazo[4,5-c]quinolin-2-one] |
| 21 |  | Cc1nc(F)ccc1-n1c(=O)n(C)c2cnc3ccc(-c4cncc(C(C)(C)O)c4)cc3c21 [Example 7.8, 1-(6-Fluoro-2-methyl-pyridin-3-yl)-8-[5-(1-hydroxy-1-methyl-ethyl)-pyridin-3-yl]-3-methyl-1,3-dihydro-imidazo[4,5-c]quinolin-2-one] |
| 17 |  | CNc1ncc(-c2ccc3ncc4c(c3c2)n(-c2ccc(N3CC[C@H](O)C3)nc2C)c(=O)n4C)cn1 [Example 32.1, 1-[6-((S)-3-Hydroxy-pyrrolidin-1-yl)-2-methyl-pyridin-3-yl]-3-methyl-8-(2-methylamino-pyrimidin-5-yl)-1,3-dihydro-imidazo[4,5-c]quinolin-2-one] |
| 40 |  | CNc1ncc(-c2ccc3ncc4c(c3c2)n(-c2ccc(N3CC(O)C3)nc2C)c(=O)n4C)cc1F [Example 29.3, 8-(5-Fluoro-6-methylamino-pyridin-3-yl)-1-[6-(3-hydroxy-azetidin-1-yl)-2-methyl-pyridin-3-yl]-3-methyl-1,3-dihydro-imidazo[4,5-c]quinolin-2-one] |
|  | 4 | Cc1nc(F)ccc1-n1c(=O)n(C)c2cnc3ccc(-c4cnc(N)c(C(F)(F)F)c4)cc3c21 [Example 7.1, 8-(6-Amino-5-trifluoromethyl-pyridin-3-yl)-1-(6-fluoro-2-methyl-pyridin-3-yl)-3-methyl-1,3-dihydro-imidazo[4,5-c]quinolin-2-one] |
|  | 15 | COc1ncccc1-n1c(=O)n(C)c2cnc3ccc(-c4cnc5[nH]ccc5c4)cc3c21 [Example 1.2, 1-(2-Methoxy-pyridin-3-yl)-3-methyl-8-(1H-pyrrolo[2,3-b]pyridin-5-yl)-1,3-dihydro-imidazo[4,5-c]quinolin-2-one] |

More lines, now with the values behind:

| Compound | IC50 (read-out: EPK_PI3Kalfa/IC50) [nM] | IC50 (read-out: PI3Kalfa/IC50) [nM] |
| --- | --- | --- |
| Cc1nc(N2CCN(C)C(=O)C2)ccc1-n1c(=O)n(C)c2cnc3ccc(-c4cnc(N)c(C(F)(F)F)c4)cc3c21 [Example 21.1, 8-(6-Amino-5-trifluoromethyl-pyridin-3-yl)-3-methyl-1-[2-methyl-6-(4-methyl-3-oxo-piperazin-1-yl)-pyridin-3-yl]-1,3-dihydro-imidazo[4,5-c]quinolin-2-one] | 5 |  |
| COc1ncccc1-n1c(=O)n(C)c2cnc3ccc(-c4ccc(C(N)=O)cc4)cc3c21 [Example 1.6, 4-[1-(2-Methoxy-pyridin-3-yl)-3-methyl-2-oxo-2,3-dihydro-1H-imidazo[4,5-c]quinolin-8-yl]-benzamide] |  | 17 |
| COc1cc(-c2ccc3ncc4c(c3c2)n(-c2ccc(N3CC(O)C3)nc2C)c(=O)n4C)cnc1CO [Example 29.5, 1-[6-(3-Hydroxy-azetidin-1-yl)-2-methyl-pyridin-3-yl]-8-(6-hydroxymethyl-5-methoxy-pyridin-3-yl)-3-methyl-1,3-dihydro-imidazo[4,5-c]quinolin-2-one] | 31 |  |
| CNc1cncc(-c2ccc3ncc4c(c3c2)n(-c2cccnc2C)c(=O)n4C)c1 [Example 2.26, 3-Methyl-8-(5-methylamino-pyridin-3-yl)-1-(2-methyl-pyridin-3-yl)-1,3-dihydro-imidazo[4,5-c]quinolin-2-one] | 14 |  |
| Cc1ncccc1-n1c(=O)n(C)c2cnc3ccc(-c4ccc(N)nc4)cc3c21 [Example 2.7, 8-(6-Amino-pyridin-3-yl)-3-methyl-1-(2-methyl-pyridin-3-yl)-1,3-dihydro-imidazo[4,5-c]quinolin-2-one] |  | 18 |
| Cc1nc(N2CCC2)ccc1-n1c(=O)n(C)c2cnc3ccc(-c4cncc(OC(C)C)c4)cc3c21 [Example 23.9, 1-(6-Azetidin-1-yl-2-methyl-pyridin-3-yl)-8-(5-isopropoxy-pyridin-3-yl)-3-methyl-1,3-dihydro-imidazo[4,5-c]quinolin-2-one] | 33 |  |
| COc1ccc(-c2ccc3ncc4c(c3c2)n(-c2ncccc2C)c(=O)n4C)cc1OC [Example 3.10, 8-(3,4-Dimethoxy-phenyl)-3-methyl-1-(3-methyl-pyridin-2-yl)-1,3-dihydro-imidazo[4,5-c]quinolin-2-one] |  | 57 |
| Cc1nc(N2CCC2)ccc1-n1c(=O)n(C)c2cnc3ccc(-c4cncc(N5CCC5)c4)cc3c21 [Example 23.1, 1-(6-Azetidin-1-yl-2-methyl-pyridin-3-yl)-8-(5-azetidin-1-yl-pyridin-3-yl)-3-methyl-1,3-dihydro-imidazo[4,5-c]quinolin-2-one] | 14 |  |
